Measured values taken from patent publication US11452781B2, “Method of preventing and treating type 1 diabetes, allograft rejection and lung fibrosis (by targeting the ATP/P2X7R axis)” (CHILDREN'S MEDICAL CENTER CORPORATION, priority 2013, dated 2022).

Test system: A549 cells co-cultured with PBMCs
Experiment: Cytotoxicity of human PBMC upon IFN-γ stimulated A549 cells, 7 days co-culture
Type: cell-based
Conditions: increasing doses of oATP
Experimental: FIG. 16A depicts a graph of CD8 activation levels. To better assess the response of CD8 T cells, splenocytes isolated from OT1 mice were stimulated with OVA peptide with and without (positive control) oATP (100 μM) and T cell proliferation determined. […] FIG. 16C depicts photomicroscopy images and a graph of cell growth and survival. Freshly isolated human peripheral blood mononuclear cells (PBMCs, 4×10^5/ml) were applied onto pre-seeded A549 cells (at ˜20% confluency). Cells were cultured in RPMI medium supplemented with interferon gamma (IFNγ) with or without oATP for 7 days. Shown are representative images of A549 cells, and A549 cells co-cultured with PBMCs in the presence and absence of 200 μM oATP. Images were taken on day 7 of the co-culture. […]
Outcome Measures—In vivo assessment of transplanted lung function was performed by thoracic CT scan imaging and measuring peak airway pressures (PawP) as previously described {Bizargity, #22}. ATP levels were measured from transplanted lung bronchoalveolar lavage fluid (BAL) by bioluminescent detection using Enliten ATP assay system (FF2000, Promega Corporation, Madison, Wis.). […] Immunohistochemistry was performed on frozen lung tissue sections utilizing CD4 and CD8 antibodies and isotype controls and assessed based on the average of 10 high power fields/lung allograft. […]

periodate-oxidized ATP [oATP]
cytolytic activity of PBMC on A549 cells: remarkable reduction
